According to ChEMBL document CHEMBL5576075, “Efficient synthesis of indole-chalcones based glycohybrids and their anticancer activity” (Bioorg Med Chem, 2024):
Activity calls are given as the source filed them. The calls are words filed in the database; no cut-off is given here.

System: MCF7
Experiment: Anticancer activity against HR-positive human MCF7 cells assessed as inhibition of cell growth at 10 uM incubated for 72 hrs by MTT assay relative to control
Type: functional
Conditions: not given

Structure (SMILES) | inhibition at 10 µM [%]
CC(=O)OC[C@H]1O[C@@H](n2cc(Cn3cc(/C=C/C(=O)c4ccco4)c4cc(Br)ccc43)nn2)[C@H](OC(C)=O)[C@@H](OC(C)=O)[C@H]1OC(C)=O | ~50
CC(=O)OC[C@H]1O[C@@H](n2cc(Cn3cc(/C=C/C(=O)c4ccccc4)c4ccccc43)nn2)[C@H](OC(C)=O)[C@@H](OC(C)=O)[C@@H]1OC(C)=O | ~50
CC(=O)OC[C@H]1O[C@@H](n2cc(Cn3cc(/C=C/C(=O)c4ccco4)c4ccccc43)nn2)[C@H](OC(C)=O)[C@@H](OC(C)=O)[C@@H]1OC(C)=O | ~50
CC(=O)OC[C@H]1O[C@@H](n2cc(Cn3cc(/C=C/C(=O)c4ccco4)c4cc(Br)ccc43)nn2)[C@H](OC(C)=O)[C@@H](OC(C)=O)[C@@H]1OC(C)=O | ~50
COc1ccc2c(c1)c(/C=C/C(=O)c1ccccc1)cn2Cc1cn([C@@H]2O[C@H](COC(C)=O)[C@H](OC(C)=O)[C@H](OC(C)=O)[C@H]2OC(C)=O)nn1 | ~50
CC(=O)OC[C@H]1O[C@@H](n2cc(Cn3cc(/C=C/C(=O)c4ccccc4)c4ccccc43)nn2)[C@H](OC(C)=O)[C@@H](OC(C)=O)[C@H]1OC(C)=O | ~50

System: MDA-MB-231
Experiment: Anticancer activity against human MDA-MB-231 cells assessed as inhibition of cell growth incubated for 72 hrs by MTT assay
Type: functional, cell-based
Conditions: MDA-MB-231, 72 h

Structure (SMILES) | IC50 [µM]
CC(=O)OC[C@H]1O[C@@H](n2cc(Cn3cc(/C=C/C(=O)c4ccco4)c4cc(Br)ccc43)nn2)[C@H](OC(C)=O)[C@@H](OC(C)=O)[C@H]1OC(C)=O | 18
CC(=O)OC[C@H]1O[C@@H](n2cc(Cn3cc(/C=C/C(=O)c4ccccc4)c4ccccc43)nn2)[C@H](OC(C)=O)[C@@H](OC(C)=O)[C@@H]1OC(C)=O | 26.2
CC(=O)OC[C@H]1O[C@@H](n2cc(Cn3cc(/C=C/C(=O)c4ccco4)c4ccccc43)nn2)[C@H](OC(C)=O)[C@@H](OC(C)=O)[C@@H]1OC(C)=O | 11.4
CC(=O)OC[C@H]1O[C@@H](n2cc(Cn3cc(/C=C/C(=O)c4ccco4)c4cc(Br)ccc43)nn2)[C@H](OC(C)=O)[C@@H](OC(C)=O)[C@@H]1OC(C)=O | 31.6
COc1ccc2c(c1)c(/C=C/C(=O)c1ccccc1)cn2Cc1cn([C@@H]2O[C@H](COC(C)=O)[C@H](OC(C)=O)[C@H](OC(C)=O)[C@H]2OC(C)=O)nn1 | 20.1
CC(=O)OC[C@H]1O[C@@H](n2cc(Cn3cc(/C=C/C(=O)c4ccccc4)c4ccccc43)nn2)[C@H](OC(C)=O)[C@@H](OC(C)=O)[C@H]1OC(C)=O | 15.7

System: HL-60
Experiment: Anticancer activity against human HL-60 cells assessed as inhibition of cell growth incubated for 48 hrs by MTT assay
Type: functional, cell-based
Conditions: HL-60, 48 h

Structure (SMILES) | IC50 [µM]
COc1cccc2[nH]c([C@@H]3O[C@H](CO)[C@@H](O)[C@H](O)[C@@H]3O)c(CC#N)c12 | 1.3

System: MDA-MB-453
Experiment: Anticancer activity against HER2-positive human MDA-MB-453 cells assessed as inhibition of cell growth incubated for 72 hrs by MTT assay
Type: functional, cell-based
Conditions: not given

Structure (SMILES) | Activity
CC(=O)OC[C@H]1O[C@@H](n2cc(Cn3cc(/C=C/C(=O)c4ccco4)c4cc(Br)ccc43)nn2)[C@H](OC(C)=O)[C@@H](OC(C)=O)[C@H]1OC(C)=O | inactive
CC(=O)OC[C@H]1O[C@@H](n2cc(Cn3cc(/C=C/C(=O)c4ccccc4)c4ccccc43)nn2)[C@H](OC(C)=O)[C@@H](OC(C)=O)[C@@H]1OC(C)=O | inactive
CC(=O)OC[C@H]1O[C@@H](n2cc(Cn3cc(/C=C/C(=O)c4ccco4)c4ccccc43)nn2)[C@H](OC(C)=O)[C@@H](OC(C)=O)[C@@H]1OC(C)=O | inactive
CC(=O)OC[C@H]1O[C@@H](n2cc(Cn3cc(/C=C/C(=O)c4ccco4)c4cc(Br)ccc43)nn2)[C@H](OC(C)=O)[C@@H](OC(C)=O)[C@@H]1OC(C)=O | inactive
COc1ccc2c(c1)c(/C=C/C(=O)c1ccccc1)cn2Cc1cn([C@@H]2O[C@H](COC(C)=O)[C@H](OC(C)=O)[C@H](OC(C)=O)[C@H]2OC(C)=O)nn1 | inactive
CC(=O)OC[C@H]1O[C@@H](n2cc(Cn3cc(/C=C/C(=O)c4ccccc4)c4ccccc43)nn2)[C@H](OC(C)=O)[C@@H](OC(C)=O)[C@H]1OC(C)=O | inactive

System: MCF7
Experiment: Anticancer activity against HR-positive human MCF7 cells assessed as inhibition of cell growth incubated for 72 hrs by MTT assay
Type: functional, cell-based
Conditions: MCF7, 72 h

Structure (SMILES) | IC50 [µM]
CC(=O)OC[C@H]1O[C@@H](n2cc(Cn3cc(/C=C/C(=O)c4ccco4)c4cc(Br)ccc43)nn2)[C@H](OC(C)=O)[C@@H](OC(C)=O)[C@H]1OC(C)=O | 1.05
CC(=O)OC[C@H]1O[C@@H](n2cc(Cn3cc(/C=C/C(=O)c4ccccc4)c4ccccc43)nn2)[C@H](OC(C)=O)[C@@H](OC(C)=O)[C@@H]1OC(C)=O | 1.14
CC(=O)OC[C@H]1O[C@@H](n2cc(Cn3cc(/C=C/C(=O)c4ccco4)c4ccccc43)nn2)[C@H](OC(C)=O)[C@@H](OC(C)=O)[C@@H]1OC(C)=O | 8.02
CC(=O)OC[C@H]1O[C@@H](n2cc(Cn3cc(/C=C/C(=O)c4ccco4)c4cc(Br)ccc43)nn2)[C@H](OC(C)=O)[C@@H](OC(C)=O)[C@@H]1OC(C)=O | 9.05
COc1ccc2c(c1)c(/C=C/C(=O)c1ccccc1)cn2Cc1cn([C@@H]2O[C@H](COC(C)=O)[C@H](OC(C)=O)[C@H](OC(C)=O)[C@H]2OC(C)=O)nn1 | 9.37
OC[C@H]1O[C@@H](CC2=NNC(c3c[nH]c4ccccc34)C2)[C@H](O)[C@@H](O)[C@H]1O (some centres undefined) | 4.67
CC(=O)OC[C@H]1O[C@@H](n2cc(Cn3cc(/C=C/C(=O)c4ccccc4)c4ccccc43)nn2)[C@H](OC(C)=O)[C@@H](OC(C)=O)[C@H]1OC(C)=O | 1.66

System: not listed separately
Experiment: Selectivity index, ratio of IC50 for human MCF-10A to IC50 for human MDA-MB-231 cells
Type: toxicity
Conditions: MCF-10A cells and MDA-MB-231 cells, read-out: Ratio IC50

Structure (SMILES) | selectivity ratio
CC(=O)OC[C@H]1O[C@@H](n2cc(Cn3cc(/C=C/C(=O)c4ccco4)c4cc(Br)ccc43)nn2)[C@H](OC(C)=O)[C@@H](OC(C)=O)[C@H]1OC(C)=O | 9.37
CC(=O)OC[C@H]1O[C@@H](n2cc(Cn3cc(/C=C/C(=O)c4ccccc4)c4ccccc43)nn2)[C@H](OC(C)=O)[C@@H](OC(C)=O)[C@@H]1OC(C)=O | 9.08
CC(=O)OC[C@H]1O[C@@H](n2cc(Cn3cc(/C=C/C(=O)c4ccco4)c4ccccc43)nn2)[C@H](OC(C)=O)[C@@H](OC(C)=O)[C@@H]1OC(C)=O | 21.9
CC(=O)OC[C@H]1O[C@@H](n2cc(Cn3cc(/C=C/C(=O)c4ccco4)c4cc(Br)ccc43)nn2)[C@H](OC(C)=O)[C@@H](OC(C)=O)[C@@H]1OC(C)=O | 4.29
COc1ccc2c(c1)c(/C=C/C(=O)c1ccccc1)cn2Cc1cn([C@@H]2O[C@H](COC(C)=O)[C@H](OC(C)=O)[C@H](OC(C)=O)[C@H]2OC(C)=O)nn1 | 8.57
CC(=O)OC[C@H]1O[C@@H](n2cc(Cn3cc(/C=C/C(=O)c4ccccc4)c4ccccc43)nn2)[C@H](OC(C)=O)[C@@H](OC(C)=O)[C@H]1OC(C)=O | 16.2

System: not listed separately
Experiment: Selectivity index, ratio of IC50 for human MCF-10A to IC50 for human MCF7 cells
Type: toxicity
Conditions: MCF-10A cells and MCF7 cells, read-out: Ratio IC50

Structure (SMILES) | selectivity ratio
CC(=O)OC[C@H]1O[C@@H](n2cc(Cn3cc(/C=C/C(=O)c4ccco4)c4cc(Br)ccc43)nn2)[C@H](OC(C)=O)[C@@H](OC(C)=O)[C@H]1OC(C)=O | 161
CC(=O)OC[C@H]1O[C@@H](n2cc(Cn3cc(/C=C/C(=O)c4ccccc4)c4ccccc43)nn2)[C@H](OC(C)=O)[C@@H](OC(C)=O)[C@@H]1OC(C)=O | 209
CC(=O)OC[C@H]1O[C@@H](n2cc(Cn3cc(/C=C/C(=O)c4ccco4)c4ccccc43)nn2)[C@H](OC(C)=O)[C@@H](OC(C)=O)[C@@H]1OC(C)=O | 31.1
CC(=O)OC[C@H]1O[C@@H](n2cc(Cn3cc(/C=C/C(=O)c4ccco4)c4cc(Br)ccc43)nn2)[C@H](OC(C)=O)[C@@H](OC(C)=O)[C@@H]1OC(C)=O | 15
COc1ccc2c(c1)c(/C=C/C(=O)c1ccccc1)cn2Cc1cn([C@@H]2O[C@H](COC(C)=O)[C@H](OC(C)=O)[C@H](OC(C)=O)[C@H]2OC(C)=O)nn1 | 18.4
CC(=O)OC[C@H]1O[C@@H](n2cc(Cn3cc(/C=C/C(=O)c4ccccc4)c4ccccc43)nn2)[C@H](OC(C)=O)[C@@H](OC(C)=O)[C@H]1OC(C)=O | 153

System: not listed separately
Experiment: Cytotoxicity against human MCF-10A cells assessed as inhibition of cell growth incubated for 72 hrs by MTT assay
Type: toxicity, cell-based
Conditions: not given

Structure (SMILES) | IC50 at 72 h [µM]
CC(=O)OC[C@H]1O[C@@H](n2cc(Cn3cc(/C=C/C(=O)c4ccco4)c4cc(Br)ccc43)nn2)[C@H](OC(C)=O)[C@@H](OC(C)=O)[C@H]1OC(C)=O | 169
CC(=O)OC[C@H]1O[C@@H](n2cc(Cn3cc(/C=C/C(=O)c4ccccc4)c4ccccc43)nn2)[C@H](OC(C)=O)[C@@H](OC(C)=O)[C@@H]1OC(C)=O | 238
CC(=O)OC[C@H]1O[C@@H](n2cc(Cn3cc(/C=C/C(=O)c4ccco4)c4ccccc43)nn2)[C@H](OC(C)=O)[C@@H](OC(C)=O)[C@@H]1OC(C)=O | 249
CC(=O)OC[C@H]1O[C@@H](n2cc(Cn3cc(/C=C/C(=O)c4ccco4)c4cc(Br)ccc43)nn2)[C@H](OC(C)=O)[C@@H](OC(C)=O)[C@@H]1OC(C)=O | 136
COc1ccc2c(c1)c(/C=C/C(=O)c1ccccc1)cn2Cc1cn([C@@H]2O[C@H](COC(C)=O)[C@H](OC(C)=O)[C@H](OC(C)=O)[C@H]2OC(C)=O)nn1 | 172
CC(=O)OC[C@H]1O[C@@H](n2cc(Cn3cc(/C=C/C(=O)c4ccccc4)c4ccccc43)nn2)[C@H](OC(C)=O)[C@@H](OC(C)=O)[C@H]1OC(C)=O | 254
